A word on the Ki: it is the equilibrium dissociation constant of an inhibitor or competing ligand from its target.

In US9493411B2 (AbbVie Inc., priority 2013, dated 2016) one finds Ki data, which are given here for 31 molecules.

For one assay, the target named is T1, BRD4 (BDII_E352-M457) (Homo sapiens, UniProt O60885).
T1 construct: made in house
As to the kind of experiment: TR-FRET bromodomain binding assay, BRD4 second bromodomain. As to conditions: His-tagged BD2, Alexa647-labeled probe 30 nM; Ki calculated from IC50. Here is the method: (§1) A time-resolved fluorescence resonance energy transfer (TR-FRET) assay was used to determine the affinities of compounds of the Examples listed in Table 1 for each bromodomain of BRD4. His-tagged first (BD1: amino acids K57-E168) and second (BD2: amino acids E352-E168) bromodomains of BRD4 were expressed and purified. An Alexa647-labeled BET-inhibitor was used as the fluorescent probe in the assay.
(§2) Compound dilution series were prepared in DMSO via a 3-fold serial dilution from 2.5 mM to 42 nM. Compounds were then diluted 6:100 in assay buffer (20 mM Sodium Phosphate, pH 6.0, 50 mM NaCl, 1 mM Ethylenediaminetetraacetic acid disodium salt dihydrate, 0.01% Triton X-100, 1 mM DL-Dithiothreitol) to yield 3× working solutions. Six microliters (μL) of the working solution was then transferred to white, low-volume assay plates (Costar #3673). A 1.5× assay mixture containing His-tagged bromodomain, Europium-conjugated anti-His antibody (Invitrogen PV5596) and the Alexa-647-conjugated probe molecule was also prepared. Twelve μL of this solution were added to the assay plate to reach a final volume of 18 μL. The final concentration of 1× assay buffer contains 2% DMSO, 50 μM-0.85 nM compound, 8 nM His-tagged bromodomain, 1 nM Europium-conjugated anti-His-tag antibody and 100 nM or 30 nM probe (for BDI or BDII, respectively). After a one-hour incubation at room temperature, TR-FRET ratios were determined using an Envision multilabel plate reader (Ex 340, Em […]).
(§3) TR-FRET data were normalized to the means of 24 no-compound controls (“high”) and 8 controls containing 1 μM un-labeled probe (“low”). Percent inhibition was plotted as a function of compound concentration and the data were fit with the 4 parameter logistic equation to obtain IC50s. Inhibition constants (Ki) were calculated from the IC50s, probe Kd and probe concentration. Typical Z′ values were between 0.65 and 0.75. The minimum significant ratio was determined to evaluate assay reproducibility (Eastwood et al., (2006) J Biomol Screen, 11: 253-261). The MSR was determined to be 2.03 for BDI and 1.93 for BDII, and a moving MSR (last six run MSR overtime) for both BDI and BDII was typically <3.

The next assay deals with T2, BRD4 (BDI_K57-E168) (Homo sapiens, UniProt O60885).
T2 construct: BD1: amino acids K57-E168; made in house
Briefly: TR-FRET bromodomain binding assay, BRD4 first bromodomain. As to conditions: His-tagged BD1, Alexa647-labeled probe 100 nM; Ki calculated from IC50. On the procedure: as §1, §2, §3

`CCOC(=O)CCN(Cc1ccccc1)C(=O)c1cc(-c2ccc(-c3c(C)noc3C)cc2)[nH]c1C` [Example 96, ethyl N-benzyl-N-({5-[4-(3,5-dimethyl-1,2-oxazol-4-yl)phenyl]-2-methyl-1H-pyrrol-3-yl}carbonyl)-beta-alaninate]: the Ki is 21.5 µM on BRD4 (BDII_E352-M457) and 3.19 µM at BRD4 (BDI_K57-E168).
On the same counts, the results for `Cc1[nH]c(-c2ccccc2NS(=O)(=O)CC(F)(F)F)cc1C(N)=O` [Example 86, 2-methyl-5-(2-{[(2,2,2-trifluoroethyl)sulfonyl]amino}phenyl)-1H-pyrrole-3-carboxamide] are 2.6 µM and 3.03 µM.
On the same counts, the results for `Cc1[nH]c(-c2ccccc2NCC2CC2)cc1C(N)=O` [Example 26, 5-{2-[(cyclopropylmethyl)amino]phenyl}-2-methyl-1H-pyrrole-3-carboxamide] are 7.53 µM and 0.86 µM.
On the same counts, the results for `Cc1[nH]c(-c2ccc(-c3ccc(C(=O)N(C)C)cc3)cc2)cc1C(N)=O` [Example 108, 5-[4′-(dimethylcarbamoyl)biphenyl-4-yl]-2-methyl-1H-pyrrole-3-carboxamide] are 4.49 µM and 11 µM.
Take `Cc1[nH]c(-c2cc(CC(=O)O)ccc2OCc2ccccc2)cc1C(N)=O` [Example 166, [4-(benzyloxy)-3-(4-carbamoyl-5-methyl-1H-pyrrol-2-yl)phenyl]acetic acid]: the results for the inhibition constant (Ki) at BRD4 (BDII_E352-M457) and at BRD4 (BDI_K57-E168) were 10.5 µM and 0.63 µM, respectively.
As to `Cc1[nH]c(-c2ccc(-c3ccsc3)cc2)cc1C(N)=O` [Example 101, 2-methyl-5-[4-(thiophen-3-yl)phenyl]-1H-pyrrole-3-carboxamide], the inhibition constant (Ki) on BRD4 (BDII_E352-M457) is 5.33 µM; on BRD4 (BDI_K57-E168) it was 7.37 µM.
The corresponding values for `Cc1[nH]c(-c2cccc([N+](=O)[O-])c2)cc1C(N)=O` [Example 3, 2-methyl-5-(3-nitrophenyl)-1H-pyrrole-3-carboxamide] are 7.2 µM and 2.33 µM.
As to `CC(=O)Nc1ccc(-c2cc(C(N)=O)c(C)[nH]2)cc1` [Example 10, 5-[4-(acetylamino)phenyl]-2-methyl-1H-pyrrole-3-carboxamide], the inhibitory constant (Ki) at BRD4 (BDII_E352-M457) was 5.57 µM; at BRD4 (BDI_K57-E168), 3.47 µM.
On the same counts, the results for `Cc1[nH]c(-c2ccc(-c3ccc(C(=O)N4CCN(C)CC4)cc3)cc2)cc1C(N)=O` [Example 114, 2-methyl-5-{4′-[(4-methylpiperazin-1-yl)carbonyl]biphenyl-4-yl}-1H-pyrrole-3-carboxamide] are 3.68 µM and 3.96 µM.
In the case of `Cc1[nH]c(-c2ccccc2NCc2ccc(N)cc2)cc1C(N)=O` [Example 52, 5-{2-[(4-aminobenzyl)amino]phenyl}-2-methyl-1H-pyrrole-3-carboxamide], the Ki at BRD4 (BDII_E352-M457) was 16.4 µM; at BRD4 (BDI_K57-E168), 3.08 µM.
In the case of `Cc1[nH]c(-c2ccccc2Oc2ccc3c(c2)CCC3)cc1C(N)=O` [Example 144, 5-[2-(2,3-dihydro-1H-inden-5-yloxy)phenyl]-2-methyl-1H-pyrrole-3-carboxamide], the inhibition constant Ki on BRD4 (BDII_E352-M457) is 1.23 µM; at BRD4 (BDI_K57-E168), 0.446 µM.
For `Cc1[nH]c(-c2ccccc2NCc2ccc(F)cc2)cc1C(N)=O` [Example 23, 5-{2-[(4-fluorobenzyl)amino]phenyl}-2-methyl-1H-pyrrole-3-carboxamide], the Ki on BRD4 (BDII_E352-M457) is 3.53 µM; at BRD4 (BDI_K57-E168), 3.52 µM.
On the same counts, the results for `Cc1[nH]c(-c2ccccc2Oc2ccc(C3CCCC3)cc2)cc1C(N)=O` [Example 124, 5-[2-(4-cyclopentylphenoxy)phenyl]-2-methyl-1H-pyrrole-3-carboxamide] are 13.1 µM and 4.6 µM.
In the case of `Cc1[nH]c(-c2ccccc2NC2CCNCC2)cc1C(N)=O` [Example 65, 2-methyl-5-[2-(piperidin-4-ylamino)phenyl]-1H-pyrrole-3-carboxamide], the Ki is 12.2 µM at BRD4 (BDII_E352-M457) and 0.634 µM at BRD4 (BDI_K57-E168).
On to `Cc1[nH]c(-c2ccccc2N)cc1C(N)=O` [Example 1, 5-(2-aminophenyl)-2-methyl-1H-pyrrole-3-carboxamide], for which the inhibition constant (Ki) at BRD4 (BDII_E352-M457) is 6.21 µM; at BRD4 (BDI_K57-E168) it was 2.54 µM.
On to `Cc1[nH]c(-c2c(F)cccc2F)cc1C(N)=O` [Example 147, 5-(2,6-difluorophenyl)-2-methyl-1H-pyrrole-3-carboxamide], for which the values for the inhibition constant Ki on BRD4 (BDII_E352-M457) and on BRD4 (BDI_K57-E168) were 12.2 µM and 11.9 µM, respectively.
On the same counts, the results for `Cc1[nH]c(-c2ccccc2NS(=O)(=O)c2cccnc2)cc1C(N)=O` [Example 80, 2-methyl-5-{2-[(pyridin-3-ylsulfonyl)amino]phenyl}-1H-pyrrole-3-carboxamide] are 13.4 µM and 9.39 µM.
The corresponding values for `Cc1[nH]c(-c2ccc(-c3ccncc3)cc2)cc1C(N)=O` [Example 102, 2-methyl-5-[4-(pyridin-4-yl)phenyl]-1H-pyrrole-3-carboxamide] are 4.37 µM and 5.68 µM.
`Cc1[nH]c(-c2ccccc2NCc2ccc(Br)cc2)cc1C(N)=O` [Example 32, 5-{2-[(4-bromobenzyl)amino]phenyl}-2-methyl-1H-pyrrole-3-carboxamide]: the inhibition constant (Ki) was 10.3 µM on BRD4 (BDII_E352-M457) and 5.17 µM on BRD4 (BDI_K57-E168).
On the same counts, the results for `Cc1[nH]c(-c2ccccc2Oc2ccc(Oc3ccccc3)cc2)cc1C(N)=O` [Example 122, 2-methyl-5-[2-(4-phenoxyphenoxy)phenyl]-1H-pyrrole-3-carboxamide] are 7.04 µM and 1.96 µM.
Take `Cc1[nH]c(-c2ccccc2NCc2ccc(C(F)(F)F)cc2)cc1C(N)=O` [Example 28, 2-methyl-5-(2-{[4-(trifluoromethyl)benzyl]amino}phenyl)-1H-pyrrole-3-carboxamide]: the Ki on BRD4 (BDII_E352-M457) is 13.6 µM; at BRD4 (BDI_K57-E168) it was 9.45 µM.
The corresponding values for `Cc1[nH]c(-c2ccc([N+](=O)[O-])cc2)cc1C(N)=O` [Example 7, 2-methyl-5-(4-nitrophenyl)-1H-pyrrole-3-carboxamide] are 6.89 µM and 1.63 µM.
On the same counts, the results for `Cc1ccccc1CNc1ccccc1-c1cc(C(N)=O)c(C)[nH]1` [Example 24, 2-methyl-5-{2-[(2-methylbenzyl)amino]phenyl}-1H-pyrrole-3-carboxamide] are 1.19 µM and 1.06 µM.
On the same counts, the results for `Cc1[nH]c(-c2ccccc2NC2Cc3ccccc3C2)cc1C(N)=O` [Example 69, 5-[2-(2,3-dihydro-1H-inden-2-ylamino)phenyl]-2-methyl-1H-pyrrole-3-carboxamide] are 2.34 µM and 0.663 µM.
As to `Cc1[nH]c(-c2ccccc2NCc2ccccc2Cl)cc1C(N)=O` [Example 34, 5-{2-[(2-chlorobenzyl)amino]phenyl}-2-methyl-1H-pyrrole-3-carboxamide], the values for the inhibition constant (Ki) on BRD4 (BDII_E352-M457) and on BRD4 (BDI_K57-E168) were 3.45 µM and 1.4 µM, respectively.
The corresponding values for `Cc1[nH]c(-c2ccc(-c3cnn(C)c3)cc2)cc1C(N)=O` [Example 103, 2-methyl-5-[4-(1-methyl-1H-pyrazol-4-yl)phenyl]-1H-pyrrole-3-carboxamide] are 3.48 µM and 4.66 µM.
Consider `Cc1[nH]c(-c2cccc(-c3ccsc3)c2)cc1C(N)=O` [Example 152, 2-methyl-5-[3-(thiophen-3-yl)phenyl]-1H-pyrrole-3-carboxamide], for which the Ki at BRD4 (BDII_E352-M457) was 7.87 µM; at BRD4 (BDI_K57-E168), 4.7 µM.
`Cc1[nH]c(-c2ccc(-c3ccc(NS(C)(=O)=O)cc3)cc2)cc1C(N)=O` [Example 110, 2-methyl-5-{4′-[(methylsulfonyl)amino]biphenyl-4-yl}-1H-pyrrole-3-carboxamide]: the inhibition constant Ki at BRD4 (BDII_E352-M457) was 5.9 µM; at BRD4 (BDI_K57-E168) it was 4.03 µM.
On the same counts, the results for `COc1cc(CNc2ccccc2-c2cc(C(N)=O)c(C)[nH]2)cc(OC)c1OC` [Example 16, 2-methyl-5-{2-[(3,4,5-trimethoxybenzyl)amino]phenyl}-1H-pyrrole-3-carboxamide] are 2.02 µM and 1.18 µM.
On the same counts, the results for `Cc1[nH]c(-c2ccc(-c3ccc4ncccc4c3)cc2)cc1C(N)=O` [Example 113, 2-methyl-5-[4-(quinolin-6-yl)phenyl]-1H-pyrrole-3-carboxamide] are 4.22 µM and 4.64 µM.
Turning to `Cc1[nH]c(-c2ccccc2NC2CCc3ccccc3C2)cc1C(N)=O` (centres unmarked) [Example 74, 2-methyl-5-[2-(1,2,3,4-tetrahydronaphthalen-2-ylamino)phenyl]-1H-pyrrole-3-carboxamide], the inhibition constant Ki on BRD4 (BDII_E352-M457) was 1.65 µM; at BRD4 (BDI_K57-E168), 0.526 µM.
